Measured values from ChEMBL document CHEMBL1201862, “PubChem BioAssay data set” (2004).
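Step 1: Grow cells in 96-well plates. Step 2: Expose to compound for 48 hours at 5 concentrations. Step 3: Interpolate endpoints linearly; if unreached, use highest concentration. GI50 marks 50% less growth.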 The source made the active and inactive calls. Cut-off read from the data, not from the text of the source: active = GI50 up to about 1.1 µM and inactive = higher.

Columns and labels:
Assay in all cases: inhibition of tumour cell growth, NCI panel, 48 h
LOX IMVI = system: LOX IMVI
NCI/ADR-RES = system: NCI/ADR-RES
IGROV-1 = system: IGROV-1
HCC 2998 = system: HCC 2998
K562 = system: K562
HOP-62 = system: HOP-62
UO-31 = system: UO-31
ACHN = system: ACHN
SK-MEL-28 = system: SK-MEL-28
SF-268 = system: SF-268
U-251 = system: U-251
NCI-H226 = system: NCI-H226
HCT-116 = system: HCT-116
RPMI-8226 = system: RPMI-8226
HT-29 = system: HT-29
DU-145 = system: DU-145
HCT-15 = system: HCT-15
Malme-3M = system: Malme-3M
BT-549 = system: BT-549

Row | Compound | GI50 (LOX IMVI) | GI50 (NCI/ADR-RES) | GI50 (IGROV-1) | GI50 (HCC 2998) | GI50 (K562) | GI50 (HOP-62) | GI50 (UO-31) | GI50 (ACHN) | GI50 (SK-MEL-28) | GI50 (SF-268) | GI50 (U-251) | GI50 (NCI-H226) | GI50 (HCT-116) | GI50 (RPMI-8226) | GI50 (HT-29) | GI50 (DU-145) | GI50 (HCT-15) | GI50 (Malme-3M) | GI50 (BT-549)
1 | O=[N+]([O-])/C=C(\CS(=O)(=O)c1ccccc1)c1ccc2c(c1)OCO2 | 37.2 µM (inactive) | 19.7 µM (inactive) | 80.5 µM (inactive) | > 100 µM (inactive) | 66.5 µM (inactive) | 92.9 µM (inactive) | 28.6 µM (inactive) | 45.6 µM (inactive) | 69.2 µM (inactive) | 27.2 µM (inactive) | 88.5 µM (inactive) | 30 µM (inactive) | 34.8 µM (inactive) | 87.1 µM (inactive) | 53.1 µM (inactive) | 38.9 µM (inactive) | 37.2 µM | – | –
2 | CC(=O)NC(=O)/N=C1\NCCC(=O)N1CCc1c[nH]c2ccccc12 | > 100 µM (inactive) | > 100 µM (inactive) | > 100 µM (inactive) | > 100 µM (inactive) | > 100 µM (inactive) | > 100 µM (inactive) | > 100 µM (inactive) | > 100 µM (inactive) | > 100 µM (inactive) | > 100 µM (inactive) | > 100 µM (inactive) | > 100 µM (inactive) | > 100 µM (inactive) | > 100 µM (inactive) | > 100 µM (inactive) | > 100 µM (inactive) | > 100 µM | > 100 µM (inactive) | –
3 | CC(C)=CC(C)C(C(O)CCC1(c2ccoc2)OCCO1)S(=O)(=O)c1ccccc1 (stereo not drawn) | > 100 µM (inactive) | 91.6 µM (inactive) | 54.5 µM (inactive) | > 100 µM (inactive) | – | > 100 µM (inactive) | > 100 µM (inactive) | > 100 µM (inactive) | > 100 µM (inactive) | > 100 µM (inactive) | > 100 µM (inactive) | > 100 µM (inactive) | > 100 µM (inactive) | > 100 µM (inactive) | – | – | > 100 µM | > 100 µM (inactive) | > 100 µM (inactive)
4 | CN1CCC2(CC1)/C(=N/C1CCCCC1)NC(=O)N2c1ccccc1 | – | > 100 µM (inactive) | > 100 µM (inactive) | > 100 µM (inactive) | – | > 100 µM (inactive) | > 100 µM (inactive) | > 100 µM (inactive) | > 100 µM (inactive) | > 100 µM (inactive) | > 100 µM (inactive) | > 100 µM (inactive) | > 100 µM (inactive) | > 100 µM (inactive) | > 100 µM (inactive) | > 100 µM (inactive) | > 100 µM | > 100 µM (inactive) | –
5 | O=c1[nH]n(Cc2ccccc2Cl)c2ccccc12 | > 100 µM (inactive) | > 100 µM (inactive) | > 100 µM (inactive) | > 100 µM (inactive) | > 100 µM (inactive) | > 100 µM (inactive) | > 100 µM (inactive) | > 100 µM (inactive) | > 100 µM (inactive) | 40.6 µM (inactive) | > 100 µM (inactive) | > 100 µM (inactive) | > 100 µM (inactive) | > 100 µM (inactive) | > 100 µM (inactive) | > 100 µM (inactive) | > 100 µM | > 100 µM (inactive) | –
6 | C=C[C@@H]1OC(=O)O[C@H]1CO | > 100 µM (inactive) | > 100 µM (inactive) | > 100 µM (inactive) | – | > 100 µM (inactive) | > 100 µM (inactive) | > 100 µM (inactive) | > 100 µM (inactive) | > 100 µM (inactive) | > 100 µM (inactive) | > 100 µM (inactive) | > 100 µM (inactive) | > 100 µM (inactive) | > 100 µM (inactive) | > 100 µM (inactive) | > 100 µM (inactive) | > 100 µM | > 100 µM (inactive) | –
7 | NC(=O)c1ncn(C2CCC(CP(=O)(O)O)C2)c1N (stereo not drawn) | > 100 µM (inactive) | > 100 µM (inactive) | > 100 µM (inactive) | > 100 µM (inactive) | – | > 100 µM (inactive) | > 100 µM (inactive) | > 100 µM (inactive) | > 100 µM (inactive) | > 100 µM (inactive) | > 100 µM (inactive) | > 100 µM (inactive) | > 100 µM (inactive) | > 100 µM (inactive) | > 100 µM (inactive) | > 100 µM (inactive) | > 100 µM | > 100 µM (inactive) | –
8 | COc1cc(Cn2c3c(c4c(CN(C)C)c(O)ccc42)C(=O)c2ccccc2C3=O)cc(OC)c1 | 16.6 µM (inactive) | 17.6 µM (inactive) | – | 17.9 µM (inactive) | 14 µM (inactive) | 15.7 µM (inactive) | 14.6 µM (inactive) | 15.3 µM (inactive) | 15.8 µM (inactive) | 14.8 µM (inactive) | 14.8 µM (inactive) | 33.2 µM (inactive) | 13.6 µM (inactive) | 18.5 µM (inactive) | 26.9 µM (inactive) | 21.7 µM (inactive) | 14 µM | 23.2 µM (inactive) | –
9 | CC12CCC(C(=O)O1)C(C)(C)O2 (stereo not drawn) | > 100 µM (inactive) | > 100 µM (inactive) | > 100 µM (inactive) | > 100 µM (inactive) | > 100 µM (inactive) | > 100 µM (inactive) | > 100 µM (inactive) | > 100 µM (inactive) | > 100 µM (inactive) | > 100 µM (inactive) | > 100 µM (inactive) | > 100 µM (inactive) | > 100 µM (inactive) | > 100 µM (inactive) | > 100 µM (inactive) | – | > 100 µM | > 100 µM (inactive) | > 100 µM (inactive)
10 | CN(C)CC(NC(NCS)C(=O)NCCNc1ccc(NCCNC(=O)C(NCS)NC(CN(C)C)OCCl)c2c1C(=O)c1c(O)ccc(O)c1C2=O)OCCl (stereo not drawn) | 0.0245 µM (active) | 1.58 µM (inactive) | 0.145 µM (active) | 0.237 µM (active) | 0.00678 µM (active) | 0.0151 µM (active) | 0.0331 µM (active) | < 0.001 µM (active) | 0.0229 µM (active) | 0.0557 µM (active) | 0.102 µM (active) | 0.0585 µM (active) | 0.0249 µM (active) | 0.0016 µM (active) | 0.0261 µM (active) | 0.0365 µM (active) | 0.13 µM | 0.0605 µM (active) | –
11 | C=CCOC(=O)NC1C(OC(C)[C@@H](NC(=O)OCc2ccccc2)C(=O)OC(C)(C)C)OC(COC(C)=O)C(OC(C)=O)C1OC(C)=O (stereo partly drawn) | 86.7 µM (inactive) | 50.6 µM (inactive) | > 100 µM (inactive) | > 100 µM (inactive) | 72.9 µM (inactive) | > 100 µM (inactive) | 17.2 µM (inactive) | > 100 µM (inactive) | > 100 µM (inactive) | > 100 µM (inactive) | > 100 µM (inactive) | > 100 µM (inactive) | > 100 µM (inactive) | 62.4 µM (inactive) | > 100 µM (inactive) | > 100 µM (inactive) | > 100 µM | > 100 µM (inactive) | –
12 | CCOC(=O)C(C#N)C1=CC(=O)C(=O)c2ccc(OC)cc21 (stereo not drawn) | 21.1 µM (inactive) | 20.1 µM (inactive) | 19.9 µM (inactive) | 16.2 µM (inactive) | 36.6 µM (inactive) | 22 µM (inactive) | 17.5 µM (inactive) | 15.3 µM (inactive) | 21.3 µM (inactive) | 30.2 µM (inactive) | 29.2 µM (inactive) | 21.6 µM (inactive) | 20.7 µM (inactive) | > 100 µM (inactive) | 31.6 µM (inactive) | 19.5 µM (inactive) | 23.8 µM | 16.9 µM (inactive) | –
